Patent US12628856B2, “Nutritional composition having lipophilic compounds with improved solubility and bioavailability” (Abbott Laboratories, priority 2013, dated 2026)

Tests used:
Assay type in all cases: physicochemical
[1] = Distribution of lutein and MDG in cream, aqueous and pellet layers after 100,000×g (Example 58); conditions: 100,000×g for 1 hour; wt % of the nutritional composition
Procedure: A study was conducted to investigate the distribution of lutein and MDG within the nutritional compositions. Sample were prepared using homogenization at 150/20 bar, and then centrifuged at 100,000×g for 1 hour. The different layers (e.g., cream, aqueous, and pellet) were then analyzed for the presence of lutein and MDG.

[2] = Centrifugation/ultrafiltration analysis of lutein and MDG distribution (Example 60); conditions: centrifugation at 100,000×g
Procedure: A study was conducted to further investigate the distribution of lutein and MDG within the nutritional composition. Samples included MDG/lutein/water; MDG/lutein/NFDM/water; MDG/lutein/WPC/water; and MDG/water.
The premixes were provided as follows: in samples that contained lutein, lutein was heated for 2 h at 50° C. with shaking. […] In samples that contained protein, non-fat dried milk was added to water (50-60° C.) with agitation and allowed to hydrate for approximately 10 min.
The samples were prepared as follows: for solution 1, water was heated to 50-60° C., an lutein in GMO-40 blend and turrax (30 sec 10000 rpm) was added; for solution 2, NFDM was placed in water solution heated to 50-60° C., and lutein was added in GMO-40 blend and turrax (30 sec 10000 rpm); for solution 3, water was heated to 50-60° C., and GMO-40 blend and turrax (30 sec 10000 rpm) was added. The solutions are listed in the table below as X.1, wherein 1 is the solution.
Samples were formulated as detailed above, and then characterized by ultrafiltration with various membranes, as well as ultracentrifuged at various times and speed (e.g., 100,000×g, 4,500×g, and 1,000×g). The details of the different centrifugation/filtration method are listed below. […]

[3] = Bound lipophile index (SEC peak area ratio 280 nm/214 nm); conditions: Example 35 model systems
Procedure: The size exclusion chromatography (SEC) system used in the following Examples is as follows: Column: Superdex Peptide 10/300 GL, GE Healthcare P/N 17-5176-01; Mobile Phase: 700 mL Milli-Q Plus water, 300 mL acetonitrile; 1.0 mL trifluoroacetic acid; Flow Rate: 0.4 mL/minute; Temperature: ambient (˜21° C.); Detection: UV light at 214 nm, 280 nm; visible light at 476 nm; Injection: 10 μL; Run Time: 70 minutes; Sample Preparation: dilute 0.6-1.1 g to 10 mL with Mobile Phase; Calibration: by 6 purified reference proteins, 14.2-160 kD.
The bound lipophile index is determined as follows: a non-specific indicator of lipophilic nutrients (including lutein and any combination of other oil soluble vitamins) in the high MW protein peak (described above). […]
A study was conducted to evaluate the effect of relative centrifugal force (RCF) on analyzing the high molecular weight lutein assembly in the aqueous phase. […] The compositions were then assessed for high molecular weight lutein assembly and the presence of protein >137 kD as done above, as well as bound lipophile index. Bound lipophile index, a relative marker for of lipophilic nutrients in the high molecular weight assembly, was determined as the peak ratio, 280 nm/214 nm for protein >137 kD.

Compound	present in the aqueous phase following centrifugation [1]	lutein in the aqueous phase ([2]; samples containing only lutein and MDG)	lutein in the aqueous phase ([2]; samples containing protein)	bound lipophile index when choline was present [3]
CC1=C[C@H](O)CC(C)(C)[C@H]1/C=C/C(C)=C/C=C/C(C)=C/C=C/C=C(C)/C=C/C=C(C)/C=C/C1=C(C)C[C@@H](O)CC1(C)C [lutein]	approximately 4 wt %	negligible	only found in the aqueous phase of samples containing protein	–
C[N+](C)(C)CCO [choline]	–	–	–	decreased
